Target: T1, phosphatase ABI1 via the co-regulator RCAR11/PYR1 (Arabidopsis thaliana, UniProt O49686+P49597)
T1 sequence (O49686 1-191): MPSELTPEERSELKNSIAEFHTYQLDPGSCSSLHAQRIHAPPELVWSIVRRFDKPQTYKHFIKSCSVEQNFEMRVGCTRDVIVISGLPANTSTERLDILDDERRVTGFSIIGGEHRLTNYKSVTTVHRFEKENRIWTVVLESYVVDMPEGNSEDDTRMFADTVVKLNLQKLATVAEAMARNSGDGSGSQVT
T1 sequence (P49597 1-434): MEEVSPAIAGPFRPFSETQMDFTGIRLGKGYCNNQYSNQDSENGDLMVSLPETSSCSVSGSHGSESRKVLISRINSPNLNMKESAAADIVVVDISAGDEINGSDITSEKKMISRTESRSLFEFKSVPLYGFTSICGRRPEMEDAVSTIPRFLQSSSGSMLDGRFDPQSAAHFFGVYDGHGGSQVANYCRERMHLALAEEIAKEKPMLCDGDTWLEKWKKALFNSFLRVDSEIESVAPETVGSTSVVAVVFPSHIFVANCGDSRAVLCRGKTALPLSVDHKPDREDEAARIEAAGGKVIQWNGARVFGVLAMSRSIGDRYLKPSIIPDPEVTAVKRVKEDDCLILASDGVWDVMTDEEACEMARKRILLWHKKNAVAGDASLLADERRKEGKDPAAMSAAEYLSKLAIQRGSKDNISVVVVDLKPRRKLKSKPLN
Assay: In vitro inhibition of the phosphatase ABI1 via the co-regulator RCAR11/PYR1, MUP dephosphorylation
Assay type: biochemical
Parameters: dose or concentration left out as unconfirmed
Settings: in a solution of DMSO and water; fluorescence at 460 nm
Excerpt: Effects of the phytohormone abscisic acid (ABA) on the behavior of plants under abiotic stress and the mechanism of action of ABA are described in the literature (cf. Abrams et al., WO97/23441, Park et al. Science, 2009, 324, 1068; Grill et al. Science, 2009, 324, 1064; Tanokura et al. Biophysics, 2011, 7, 123; Schroeder et al. Plant J. 2010, 61, 290). Therefore, it is possible with the aid of a suitable in vitro test system to derive a correlation between the action of ABA and the stress response of a plant under abiotic stress. In the event of water deficiency (drought stress), plants form the phytohormone abscisic acid (ABA). This binds, along with a co-regulator (Regulatory Component of ABA-Receptor=RCAR according to Grill et al. Science, 2009, 324, 1064 or PYR/PYL according to Cutler et al. Science, 2009, 324, 1068), to a phosphatase (e.g. ABI1, a type 2C protein phosphatase, also abbreviated to PP2C) and inhibits its activity. As a result, a “downstream” kinase (e.g. SnRK2) is no longer dephosphorylated. This kinase, which is thus active, via phosphorylation of transcription factors (e.g. AREB/ABF, cf. Yoshida et al., 2010, 61, 672), switches on a genetic protection program to increase drought stress tolerance. The assay described hereinafter utilizes the inhibition of the phosphatase ABI1 via the co-regulator RCAR11/PYR1 aus Arabidopsis thaliana. For the determination of activity, the dephosphorylation of 4-methylumbelliferyl phosphate (MUP) was measured at 460 nm. The in vitro assay was conducted in Greiner 384-well PS microplates F-well, using two controls: a) 0.5% dimethyl sulfoxide (DMSO) and b) 5 μM abscisic acid (ABA). The assay described here was generally conducted with substance concentrations of the appropriate chemical test substances in a concentration range of 0.1 μM to 100 μM in a solution of DMSO and water. The substance solution thus obtained, if necessary, was stirred with esterase from porcine liver (EC 3.1.1.1) at room temperature for 3 h and centrifuged at 4000 rpm for 30 min. A total volume of 45 μl was introduced into each cavity of the microplate, having the following composition: • 1) 5 μl of substance solution, i.e. a) DMSO 5% or b) abscisic acid solution or c) the corresponding example compound of the general formula (I) dissolved in 5% DMSO. • 2) 20 μl of enzyme buffer mix, composed of a) 40% by vol. of enzyme buffer (10 mL contain equal proportions by volume of 500 mM Tris-HCl pH 8, 500 mM NaCl, 3.33 mM MnCl2, 40 mM dithiothreitol (DTT)), b) 4% by vol. of ABI1 dilution (protein stock solution was diluted so as to give, after addition, a final concentration in the assay of 0.15 μg ABI1/well), c) 4% by vol. of RCAR11 dilution (enzyme stock was diluted so as to give, on addition of the dilution to the enzyme buffer mix, a final concentration in the assay of 0.30 μg enzyme/well), d) 5% by vol. of Tween20 (1%), e) 47% by vol. H2O bi-dist. • 3) 20 μl of substrate mix, composed of a) 10% by vol. of 500 mM Tris-HCl pH8, b) 10% by vol. of 500 mM NaCl, c) 10% by vol. of 3.33 mM MnCl2, d) 5% by vol. of 25 mM MUP, 5% by vol. of Tween20 (1%), 60% by vol. of H2O bi-dist.
Enzyme buffer mix and substrate mix were made up 5 minutes prior to the addition and warmed to a temperature of 35° C. On completion of pipetting of all the solutions and on completion of mixing, the plate was incubated at 35° C. for 20 minutes. Finally, a relative fluorescence measurement was made at 35° C. with a BMG Labtech “POLARstar Optima” microplate reader using a 340/10 nm excitation filter and a 460 nm emission filter. The efficacy of the compounds of the general formula (I) is reported in the table which follows using abscisic acid […] as comparative substance (No. 37) according to the following classification: ++++ (inhibition≧90%), +++ (90%>inhibition≧70%), ++ (70%>inhibition≧50%), + (50%>inhibition≧30%). […]

Structure (SMILES) | ABI1 inhibition
COC(=O)CCN1C(=O)CCc2cc(NS(=O)(=O)Cc3ccccc3Cl)ccc21 [A51-168] | ++++ (inhibition≧90%)
COC(=O)CCN1C(=O)CCc2cc(NS(=O)(=O)Cc3ccccc3F)ccc21 [A51-161] | +++ (90%>inhibition≧70%)
Cc1ccc(CS(=O)(=O)Nc2ccc3c(c2)CCC(=O)N3CC2CC2(Cl)Cl)cc1 (stereo not drawn) [A32-152] | ++ (70%>inhibition≧50%)
CC1(C)CC(=O)N(CC#N)c2ccc(NS(=O)(=O)Cc3ccc(Cl)cc3)cc21 [B16-165] | +++ (90%>inhibition≧70%)
COC(=O)CN1C(=O)CCc2cc(NS(=O)(=O)Cc3ccc(C#N)cc3)ccc21 [A50-181] | +++ (90%>inhibition≧70%)
O=C1CCc2cc(NS(=O)(=O)Cc3ccc([N+](=O)[O-])cc3)ccc2N1CC(F)F [A1-175] | +++ (90%>inhibition≧70%)
N#CCCCN1C(=O)CCc2cc(NS(=O)(=O)Cc3ccc(C#N)cc3)ccc21 [A48-181] | ++++ (inhibition≧90%)
CCc1ccc(CS(=O)(=O)Nc2ccc3c(c2)CCC(=O)N3CC2CC2)cc1 [A19-325, N-[1-(Cyclopropylmethyl)-2-oxo-1,2,3,4-tetrahydroquinolin-6-yl]-1-(4-ethylphenyl)methanesulfonamide] | ++++ (inhibition≧90%)
CCc1ccc(S(=O)(=O)Nc2ccc3c(c2)CCC(=O)N3CC2CC2)cc1 [A19-601] | +++ (90%>inhibition≧70%)
Cc1ccc(CS(=O)(=O)Nc2ccc3c(c2)CCC(=O)N3CC2CCCC2)cc1 [A22-152] | +++ (90%>inhibition≧70%)
COC(=O)CN1C(=O)CCc2cc(NS(=O)(=O)Cc3cccc(Cl)c3)ccc21 [A50-166] | ++ (70%>inhibition≧50%)
COC(=O)CCN1C(=O)CCc2cc(NS(=O)(=O)Cc3cccc(Br)c3)ccc21 [A51-173] | ++ (70%>inhibition≧50%)
CC(C)(C)c1ccc(CS(=O)(=O)Nc2ccc3c(c2)CCC(=O)N3CC2CCC2)cc1 [A21-332] | ++++ (inhibition≧90%)
N#Cc1ccc(CS(=O)(=O)Nc2ccc3c(c2)CCC(=O)N3CC2CCCC2)cc1 [A22-181] | +++ (90%>inhibition≧70%)
O=C1CCc2c(cc(F)c(NS(=O)(=O)Cc3ccc(F)cc3)c2F)N1CC1CC1 [A29-158] | ++ (70%>inhibition≧50%)
Cc1ccc(CS(=O)(=O)Nc2ccc3c(c2)CCC(=O)N3CC2CCC2)cc1 [A21-152] | ++++ (inhibition≧90%)
CCc1ccc(CS(=O)(=O)Nc2ccc3c(c2)CCC(=O)N3CC2CCC2)cc1 [A21-325] | ++++ (inhibition≧90%)
O=C1CCc2cc(NS(=O)(=O)Cc3cccc(F)c3)ccc2N1CC1CCC1 [A21-159] | ++++ (inhibition≧90%)
COC(=O)CN1C(=O)CCc2cc(NS(=O)(=O)Cc3ccc(F)cc3)ccc21 [A50-158] | +++ (90%>inhibition≧70%)
COC(=O)CCN1C(=O)CCc2cc(NS(=O)(=O)Cc3ccccc3)ccc21 [A51-151] | +++ (90%>inhibition≧70%)
COC(=O)CCN1C(=O)CCc2cc(NS(=O)(=O)Cc3ccc([N+](=O)[O-])cc3)ccc21 [A51-175] | +++ (90%>inhibition≧70%)
O=C1CCc2cc(NS(=O)(=O)Cc3cccc(Br)c3)ccc2N1CC(F)F [A1-173] | ++ (70%>inhibition≧50%)
O=C1CCc2cc(NS(=O)(=O)Cc3cccc([N+](=O)[O-])c3)ccc2N1CC(F)(F)F [A2-176] | +++ (90%>inhibition≧70%)
COC(=O)CCN1C(=O)CCc2cc(NS(=O)(=O)Cc3ccccc3[N+](=O)[O-])ccc21 [A51-177] | ++ (70%>inhibition≧50%)
O=C1CCc2cc(NS(=O)(=O)Cc3ccccc3[N+](=O)[O-])ccc2N1CC(F)(F)F [A2-177] | +++ (90%>inhibition≧70%)
COC(=O)CN1C(=O)CCc2cc(NS(=O)(=O)Cc3ccccc3)ccc21 [A50-151] | ++ (70%>inhibition≧50%)

Next, values leading:

ABI1 inhibition | Structure (SMILES)
+++ (90%>inhibition≧70%) | O=C1CCc2cc(NS(=O)(=O)Cc3cccc(Cl)c3)ccc2N1CC(F)(F)F [A2-166]
++++ (inhibition≧90%) | Cc1ccc(CS(=O)(=O)Nc2ccc3c(c2)CCC(=O)N3CC(F)(F)C(F)(F)F)cc1 [A10-152]
++++ (inhibition≧90%) | CCOCCN1C(=O)CCc2cc(NS(=O)(=O)Cc3ccc(C)cc3)ccc21 [A39-152]
++++ (inhibition≧90%) | O=C1CCc2cc(NS(=O)(=O)Cc3ccc(Cl)cc3)ccc2N1CC(F)F [A1-165]
+++ (90%>inhibition≧70%) | Cc1cccc(CS(=O)(=O)Nc2ccc3c(c2)CCC(=O)N3CC(F)(F)F)c1 [A2-153]
++++ (inhibition≧90%) | O=C1CCc2cc(NS(=O)(=O)Cc3ccc(C(F)(F)F)cc3)ccc2N1CC(F)(F)F [A2-178]
++ (70%>inhibition≧50%) | O=C1CCc2cc(NS(=O)(=O)Cc3ccc(Cl)cc3)ccc2N1CC1CC1(Cl)Cl (racemic) [A32-165]
++++ (inhibition≧90%) | O=C1CCc2cc(NS(=O)(=O)Cc3ccc([N+](=O)[O-])cc3)ccc2N1CC(F)(F)F [A2-175]
++++ (inhibition≧90%) | COCCN1C(=O)CCc2cc(NS(=O)(=O)Cc3ccc(C)cc3)ccc21 [A38-152, N-[1-(Methoxyethyl)-2-oxo-1,2,3,4-tetrahydroquinolin-6-yl]-1-(4-methylphenyl)methanesulfonamide]
+++ (90%>inhibition≧70%) | COCCN1C(=O)CCc2cc(NS(=O)(=O)Cc3cccc(Cl)c3)ccc21 [A38-166]
+ (50%>inhibition≧30%) | CCOCCN1C(=O)CCc2cc(NS(=O)(=O)Cc3ccc(F)cc3)ccc21 [A39-158]
++++ (inhibition≧90%) | Cc1ccc(CS(=O)(=O)Nc2ccc3c(c2)CCC(=O)N3CC(F)F)cc1 [A1-152]
++++ (inhibition≧90%) | COC(=O)CCN1C(=O)CCc2cc(NS(=O)(=O)Cc3ccc(C)cc3)ccc21 [A51-152]
++++ (inhibition≧90%) | O=C1CCc2cc(NS(=O)(=O)Cc3ccc(Cl)cc3)ccc2N1CCC(F)(F)F [A7-165]
++++ (inhibition≧90%) | O=C1CCc2cc(NS(=O)(=O)Cc3ccc(Br)cc3)ccc2N1CC(F)F [A1-172]
++ (70%>inhibition≧50%) | N#Cc1cccc(CS(=O)(=O)Nc2ccc3c(c2)CCC(=O)N3CCC(F)(F)F)c1 [A7-182]
